The experiment relates to Powdery mildew. Description: Powdery mildew on whole Bell pepper plants. It is filed as in vivo. As to conditions: 1000 spores, evaluated every 24 hours for 3 days. Here is the method:
Bell pepper plants where obtained at 4 weeks, replanted and acclimatized (22-28° C., 16 hour light). • ii. Plants where divided between treated plants: present formulation/active agent (thyme oil 0.1%)+Soap, negative control plants (no active fungicide) and a positive control (Penconazole, Ophir 2000). The plants were treated on 4 leafs, at 6 places on each leaf, with a solution containing 1000 spores. Infected plants were preserved in a moist environment. • iii. Fungi infestation was evaluated every 24 hours for 3 days: • i. Treated: 55% of leafs where infected; • ii. Negative control: 97.5 of leafs where infected • iii. Positive control: 40% of leafs where infected

The molecule `CCCC(Cn1cncn1)c1ccc(Cl)cc1Cl` (stereo not shown) [Penconazole] displayed a leafs infected of 40%.

Source of the values: patent US20220304302A1, “MUCILAGE BASED PLANT PROTECTION PRODUCT AND METHOD THEREOF” (BOTANOHEALTH LTD., priority 2019, published 2022).
